The supplement of paper PMC11208160

Test: recombinant UMI read abundance after kanamycin selection (control-corrected) (log10(CPM+1)); higher = more efficient recombination; extreme values may be limits of the assay; sequences stand for … in AGTGCAGAGAAAATCGGCCAGTTTTCTCTGCCTGCAGTCCGCATGCCGTGGGACCCCTTGGGTTCTAACCTGTTGCCTAGATTTATGCAGCGGACTGCCTTTCTCCCAAAGTGATAAACCGG…AGGTTGGTTTCACT; site = the 11-nt donor
In short: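 Under IPTG (0.07 mM) plus kanamycin, or without selection, Escherichia coli carrying a UMI-tagged donor and donor-binding-loop pair library and a target plasmid for the IS621 bridge recombinase were plated in two replicates. Recombinant UMIs were PCR-amplified across the donor–target junction and sequenced. Counts were converted to CPM, averaged over replicates, scaled by control-derived factors and reported as log10(CPM+1).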
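Further: IS621 bridge recombinase in Escherichia coli cells against a fixed T5 target plasmid.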

Row | Sequence | recombinant UMI read abundance (log10)
1 | GATGATCCATGGACCGGTTTTCCCGGTAATCCGTATTTGCT (site GATCATCCTAG) | 0
2 | GATGATCCATGGACCGGTTTTCCCGGTAATCCGTATTTGCT (site GATGATCCTAG) | 0
3 | GATGATCCATGGACCGGTTTTCCCGGTAATCCGTATTTGCT (site GATTATCCTAG) | 0
4 | GATGATTCATGGACCGGTTTTCCCGGTAATCCGTATTTGTT (site GAAGATTCTAA) | 0.433
5 | GATGATTCATGGACCGGTTTTCCCGGTAATCCGTATTTGTT (site GACGATTCTAA) | 0
6 | GATGATTCATGGACCGGTTTTCCCGGTAATCCGTATTTGTT (site GAGGATTCTAA) | 0
7 | GATGATTCATGGACCGGTTTTCCCGGTAATCCGTATTTGTT (site GATGATTCTAA) | 1.79
8 | GATGCCTCATGGACCGGTTTTCCCGGTAATCCGTATTTGTT (site GATGCCTCTAA) | 0.895
9 | GATGGCTCATGGACCGGTTTTCCCGGTAATCCGTATTTGCC (site GATGGCTCTGG) | 2.65
10 | GATGGTTCATGGACCGGTTTTCCCGGTAATCCGTATTTGAT (site GATGGTTCTAT) | 1.58
11 | GATGTGTCATGGACCGGTTTTCCCGGTAATCCGTATTTGAC (site AATGTGTCTGT) | 1.67
12 | GATGTGTCATGGACCGGTTTTCCCGGTAATCCGTATTTGAC (site CATGTGTCTGT) | 0.736
13 | GATGTGTCATGGACCGGTTTTCCCGGTAATCCGTATTTGAC (site GATGTGTCTGT) | 2.61
14 | GATGTGTCATGGACCGGTTTTCCCGGTAATCCGTATTTGAC (site TATGTGTCTGT) | 0.677
15 | GATTACCCATGGACCGGTTTTCCCGGTAATCCGTATTTGAG (site GATTACCCTCT) | 0.03
16 | GATTACCCATGGACCGGTTTTCCCGGTAATCCGTATTTGCT (site GATTAACCTAG) | 0
17 | GATTACCCATGGACCGGTTTTCCCGGTAATCCGTATTTGCT (site GATTACCCTAG) | 0
18 | GATTACCCATGGACCGGTTTTCCCGGTAATCCGTATTTGCT (site GATTAGCCTAG) | 0
19 | GATTACCCATGGACCGGTTTTCCCGGTAATCCGTATTTGCT (site GATTATCCTAG) | 0
20 | GATTATCCATGGACCGGTTTTCCCGGTAATCCGTATTTGCT (site AATTATCCTAG) | 0
21 | GATTATCCATGGACCGGTTTTCCCGGTAATCCGTATTTGCT (site CATTATCCTAG) | 0.436
22 | GATTATCCATGGACCGGTTTTCCCGGTAATCCGTATTTGCT (site GAATATCCTAG) | 0
23 | GATTATCCATGGACCGGTTTTCCCGGTAATCCGTATTTGCT (site GACTATCCTAG) | 0
24 | GATTATCCATGGACCGGTTTTCCCGGTAATCCGTATTTGCT (site GAGTATCCTAG) | 0
25 | GATTATCCATGGACCGGTTTTCCCGGTAATCCGTATTTGCT (site GATAATCCTAG) | 0

Row | Sequence | recombinant UMI read abundance (log10)
26 | GATTATCCATGGACCGGTTTTCCCGGTAATCCGTATTTGCT (site GATCATCCTAG) | 0.81
27 | GATTATCCATGGACCGGTTTTCCCGGTAATCCGTATTTGCT (site GATGATCCTAG) | 0
28 | GATTATCCATGGACCGGTTTTCCCGGTAATCCGTATTTGCT (site GATTAACCTAG) | 0
29 | GATTATCCATGGACCGGTTTTCCCGGTAATCCGTATTTGCT (site GATTACCCTAG) | 0
30 | GATTATCCATGGACCGGTTTTCCCGGTAATCCGTATTTGCT (site GATTAGCCTAG) | 0.351
31 | GATTATCCATGGACCGGTTTTCCCGGTAATCCGTATTTGCT (site GATTATACTAG) | 0
32 | GATTATCCATGGACCGGTTTTCCCGGTAATCCGTATTTGCT (site GATTATCCTAA) | 0.00555
33 | GATTATCCATGGACCGGTTTTCCCGGTAATCCGTATTTGCT (site GATTATCCTAC) | 0.0217
34 | GATTATCCATGGACCGGTTTTCCCGGTAATCCGTATTTGCT (site GATTATCCTAG) | 0
35 | GATTATCCATGGACCGGTTTTCCCGGTAATCCGTATTTGCT (site GATTATCCTAT) | 0.0146
36 | GATTATCCATGGACCGGTTTTCCCGGTAATCCGTATTTGCT (site GATTATCCTCG) | 0
37 | GATTATCCATGGACCGGTTTTCCCGGTAATCCGTATTTGCT (site GATTATCCTGG) | 0
38 | GATTATCCATGGACCGGTTTTCCCGGTAATCCGTATTTGCT (site GATTATCCTTG) | 0
39 | GATTATCCATGGACCGGTTTTCCCGGTAATCCGTATTTGCT (site GATTATGCTAG) | 0
40 | GATTATCCATGGACCGGTTTTCCCGGTAATCCGTATTTGCT (site GATTATTCTAG) | 0
41 | GATTATCCATGGACCGGTTTTCCCGGTAATCCGTATTTGCT (site GATTCTCCTAG) | 0
42 | GATTATCCATGGACCGGTTTTCCCGGTAATCCGTATTTGCT (site GATTGTCCTAG) | 0
43 | GATTATCCATGGACCGGTTTTCCCGGTAATCCGTATTTGCT (site GATTTTCCTAG) | 0
44 | GATTATCCATGGACCGGTTTTCCCGGTAATCCGTATTTGCT (site GCTTATCCTAG) | 0
45 | GATTATCCATGGACCGGTTTTCCCGGTAATCCGTATTTGCT (site GGTTATCCTAG) | 0
46 | GATTATCCATGGACCGGTTTTCCCGGTAATCCGTATTTGCT (site GTTTATCCTAG) | 0
47 | GATTATCCATGGACCGGTTTTCCCGGTAATCCGTATTTGCT (site TATTATCCTAG) | 0
48 | GATTATGCATGGACCGGTTTTCCCGGTAATCCGTATTTGCT (site GATTATACTAG) | 1.54
49 | GATTATGCATGGACCGGTTTTCCCGGTAATCCGTATTTGCT (site GATTATCCTAG) | 0.309
50 | GATTATGCATGGACCGGTTTTCCCGGTAATCCGTATTTGCT (site GATTATGCTAG) | 2.13

Row | Sequence | recombinant UMI read abundance (log10)
51 | GATTATGCATGGACCGGTTTTCCCGGTAATCCGTATTTGCT (site GATTATTCTAG) | 0
52 | GATTCACCATGGACCGGTTTTCCCGGTAATCCGTATTTGTT (site GATTCACCTAA) | 0.0124
53 | GATTCGACATGGACCGGTTTTCCCGGTAATCCGTATTTGAC (site GATTAGACTGT) | 0
54 | GATTCGACATGGACCGGTTTTCCCGGTAATCCGTATTTGAC (site GATTCGACTGT) | 2.01
55 | GATTCGACATGGACCGGTTTTCCCGGTAATCCGTATTTGAC (site GATTGGACTGT) | 0
56 | GATTCGACATGGACCGGTTTTCCCGGTAATCCGTATTTGAC (site GATTTGACTGT) | 0
57 | GATTGCACATGGACCGGTTTTCCCGGTAATCCGTATTTGAC (site GATTGAACTGT) | 0
58 | GATTGCACATGGACCGGTTTTCCCGGTAATCCGTATTTGAC (site GATTGCACTGT) | 1.53
59 | GATTGCACATGGACCGGTTTTCCCGGTAATCCGTATTTGAC (site GATTGGACTGT) | 0
60 | GATTGCACATGGACCGGTTTTCCCGGTAATCCGTATTTGAC (site GATTGTACTGT) | 0
61 | GATTGCCCATGGACCGGTTTTCCCGGTAATCCGTATTTGAT (site GATTGCCCTAT) | 0
62 | GATTGCCCATGGACCGGTTTTCCCGGTAATCCGTATTTGAT (site GCTTGCCCTAT) | 0.0105
63 | GATTGCCCATGGACCGGTTTTCCCGGTAATCCGTATTTGAT (site GGTTGCCCTAT) | 0.00714
64 | GATTGCCCATGGACCGGTTTTCCCGGTAATCCGTATTTGAT (site GTTTGCCCTAT) | 0.00814
65 | GATTGGACATGGACCGGTTTTCCCGGTAATCCGTATTTGAA (site GATTGGACTAT) | 0.0122
66 | GATTGGACATGGACCGGTTTTCCCGGTAATCCGTATTTGAA (site GATTGGACTCT) | 0.0133
67 | GATTGGACATGGACCGGTTTTCCCGGTAATCCGTATTTGAA (site GATTGGACTGT) | 0
68 | GATTGGACATGGACCGGTTTTCCCGGTAATCCGTATTTGAA (site GATTGGACTTT) | 0.419
69 | GATTGGACATGGACCGGTTTTCCCGGTAATCCGTATTTGAC (site AATTGGACTGT) | 0.543
70 | GATTGGACATGGACCGGTTTTCCCGGTAATCCGTATTTGAC (site CATTGGACTGT) | 0.263
71 | GATTGGACATGGACCGGTTTTCCCGGTAATCCGTATTTGAC (site GAATGGACTGT) | 1.41
72 | GATTGGACATGGACCGGTTTTCCCGGTAATCCGTATTTGAC (site GACTGGACTGT) | 0
73 | GATTGGACATGGACCGGTTTTCCCGGTAATCCGTATTTGAC (site GAGTGGACTGT) | 0
74 | GATTGGACATGGACCGGTTTTCCCGGTAATCCGTATTTGAC (site GATAGGACTGT) | 0.353
75 | GATTGGACATGGACCGGTTTTCCCGGTAATCCGTATTTGAC (site GATCGGACTGT) | 0.745
